Patent US20240369551A1 (priority 2021, published 2024)
Ends that are not written are not given here.

Test system: COVID19 anti-S1 IgG
Assay: UV-vis aggregation test of peptide-coated nanoparticles (Examples 1, 6, 7, 8)
Assay type: binding
Conditions: silver nanoparticles (AgNP, 10 nm), streptavidin-biotin

In the case of “S14P5-Ag: S14P5 epitope conjugated onto silver nanoparticles (AgNP, 10 nm) through the streptavidin-biotin approach (TESNKKFLPFQQFGRDIA; also: conjugated to silver nanoparticles via streptavidin-biotin)”, the “response upon introduction of COV19 anti-S1 IgGs” value is reported as “visible nanoparticle precipitation”.
